Reference: article PMC6506615, “Internalization of Erythrocyte Acylpeptide Hydrolase Is Required for Asexual Replication of Plasmodium falciparum” (mSphere, 2019)

Molecular target: T1, acylpeptide hydrolase (APEH) (Homo sapiens, UniProt P13798)
T1 sequence (P13798 1-732): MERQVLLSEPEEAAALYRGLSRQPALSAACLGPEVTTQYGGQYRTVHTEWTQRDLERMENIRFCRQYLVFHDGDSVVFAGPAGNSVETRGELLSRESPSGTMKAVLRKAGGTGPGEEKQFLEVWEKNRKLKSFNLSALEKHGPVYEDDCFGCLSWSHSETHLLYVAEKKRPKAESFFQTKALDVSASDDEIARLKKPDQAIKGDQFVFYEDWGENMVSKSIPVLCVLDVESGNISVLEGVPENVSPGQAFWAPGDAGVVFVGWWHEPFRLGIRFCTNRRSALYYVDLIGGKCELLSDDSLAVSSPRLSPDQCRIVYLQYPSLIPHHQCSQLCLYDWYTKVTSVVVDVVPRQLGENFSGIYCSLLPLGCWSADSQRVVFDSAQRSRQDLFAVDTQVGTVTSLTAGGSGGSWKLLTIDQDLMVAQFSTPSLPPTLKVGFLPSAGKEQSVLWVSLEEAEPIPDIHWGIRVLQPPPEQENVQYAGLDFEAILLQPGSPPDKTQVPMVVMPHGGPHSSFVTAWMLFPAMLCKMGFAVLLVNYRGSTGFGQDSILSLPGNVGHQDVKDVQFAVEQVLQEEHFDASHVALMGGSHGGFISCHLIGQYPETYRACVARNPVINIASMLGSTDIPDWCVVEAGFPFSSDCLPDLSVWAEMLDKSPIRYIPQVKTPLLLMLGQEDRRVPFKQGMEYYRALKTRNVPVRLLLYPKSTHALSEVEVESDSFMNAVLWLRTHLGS
Test: competitive ABPP with TAMRA-FP in human erythrocyte lysate and saponin-isolated parasite lysate; also intact erythrocytes
Assay type: biochemical

Compound: CC(C)CC(O)(CC(C)C)c1cnn(C(=O)N2CCCC2)n1 [AA74-1]
- IC50: 7.4 ± 2.4 nM
